Measurements reported in patent publication US8802664B2 (Bioproject, priority 2010, dated 2014).

Target: T1, human H4 receptor (Homo sapiens, UniProt Q9H3N8)
T1 construct: expressed in transfected cells
Test: [3H]Histamine binding on membranes of CHO cells stably expressing human H4 receptor
Settings: not given
How it was run: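 CHO-hH4 membranes 20 μg/well; buffer 50 mM Tris/HCl, 0.5 mM EDTA, pH 7.4; NSB: 10 μM JNJ 7777120 (BP1.2404); GF/B filtration (PEI-presoaked), 3 ice-cold washes; scintillation counting.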

Ki or IC50 activity class	Compound
< 300 nM	CN1CCC(OC(c2cccc(SCCN)c2)c2nc3ccccc3[nH]2)CC1 (stereo not shown) [Example 249, 2-{3-[(1H-benzimidazol-2-yl)(1-methylpiperidin-4-yloxy)methyl]phenylsulfanyl}ethylamine]
< 300 nM	CSCCOc1cccc(C(OC2CCN(C)CC2)c2nc3ccccc3s2)c1 (stereo not shown) [Example 250, 2-{(1-methylpiperidin-4-yloxy)[3-(2-methylsulfanyl-ethoxy)phenyl]methyl}benzothiazole]
< 30 nM	CN1CCC(OC(c2cccc(SCCCO)c2)c2nc3ccccc3s2)CC1 (stereo not shown) [Example 254, 3-{3-[benzothiazol-2-yl(1-methylpiperidin-4-yloxy)methyl]phenylsulfanyl}propan-1-ol]
< 30 nM	CC(O)CSc1cccc(C(OC2CCN(C)CC2)c2nc3ccccc3s2)c1 (stereo not shown) [Example 255, 1-{3-[benzothiazol-2-yl(1-methylpiperidin-4-yloxy)methyl]phenylsulfanyl}propan-2-ol]
< 30 nM	CN1CCC(OC(c2cccc(SCCCCO)c2)c2nc3ccccc3s2)CC1 (stereo not shown) [Example 256, 4-{3-[benzothiazol-2-yl(1-methylpiperidin-4-yloxy)methyl]phenylsulfanyl}butan-1-ol]
< 300 nM	CN1CCC(OC(c2cccc(OCCCO)c2)c2nc3ccccc3s2)CC1 (stereo not shown) [Example 258, 3-{3-[benzothiazol-2-yl(1-methylpiperidin-4-yloxy)methyl]phenoxy}propan-1-ol]
< 300 nM	CNC(=O)CSc1cccc(C(OC2CCN(C)CC2)c2nc3ccccc3s2)c1 (stereo not shown) [Example 259, 2-{3-[benzothiazol-2-yl(1-methylpiperidin-4-yloxy)methyl]phenylsulfanyl}-N-methylacetamide]
< 1000 nM	CN1CCC(OC(c2cccc(SCC(N)=O)c2)c2nc3ccccc3s2)CC1 (stereo not shown) [Example 263, 2-{3-[benzothiazol-2-yl(1-methylpiperidin-4-yloxy)methyl]phenylsulfanyl}acetamide]
< 300 nM	CN1CCC(OC(c2cccc(SCC(=O)NN)c2)c2nc3ccccc3s2)CC1 (stereo not shown) [Example 264, {3-[benzothiazol-2-yl(1-methylpiperidin-4-yloxy)methyl]phenylsulfanyl}acetic acid hydrazide]
< 300 nM	CN1CCC(OC(c2cccc(OCc3ccncc3)c2)c2nc3ccccc3s2)CC1 (stereo not shown) [Example 265, 2-{(1-methylpiperidin-4-yloxy)[3-(pyridin-4-ylmethoxy)phenyl]methyl}benzothiazole]
< 300 nM	CN1CCC(OC(c2cccc(OCCCCO)c2)c2nc3ccccc3s2)CC1 (stereo not shown) [Example 266, 4-{3-[benzothiazol-2-yl(1-methylpiperidin-4-yloxy)methyl]phenoxy}butan-1-ol]
< 30 nM	CN1CCC(OC(c2cccc(OCc3ccco3)c2)c2nc3ccccc3s2)CC1 (stereo not shown) [Example 267, 2-[[3-(furan-2-ylmethoxy)phenyl](1-methylpiperidin-4-yloxy)methyl]benzothiazole]
< 300 nM	CN1CCC(OC(c2cccc(SCC3(CCO)CC3)c2)c2nc3ccccc3s2)CC1 (stereo not shown) [Example 268, 2-(1-{3-[benzothiazol-2-yl(1-methylpiperidin-4-yloxy)methyl]phenylsulfanylmethyl}cyclopropyl)ethanol]
< 30 nM	CN1CCC(OC(c2cccc(SCCN)c2)c2nc3ccccc3s2)CC1 (stereo not shown) [Example 269, 2-{3-[benzothiazol-2-yl(1-methylpiperidin-4-yloxy)methyl]phenylsulfanyl}ethylamine]
< 1000 nM	CC(=O)COCc1cccc(C(OC2CCN(C)CC2)c2nc3ccccc3s2)c1 (stereo not shown) [Example 270, 1-{3-[benzothiazol-2-yl(1-methylpiperidin-4-yloxy)methyl]benzyloxy}propan-2-one]
< 300 nM	CCSc1cc(C(OC2CCN(C)CC2)c2nc3ccccc3[nH]2)ccc1C (stereo not shown) [Example 274, 2-[(3-ethylsulfanyl-4-methylphenyl)(1-methylpiperidin-4-yloxy)methyl]-1H-benzimidazole]
< 300 nM	CC(=O)COCC#Cc1cccc(C(OC2CCN(C)CC2)c2nc3ccccc3s2)c1 (stereo not shown) [Example 275, 1-(3-{3-[benzothiazol-2-yl(1-methylpiperidin-4-yloxy)methyl]phenyl}prop-2-ynyloxy)-propan-2-one]
< 30 nM	CC(O)COCC#Cc1cccc(C(OC2CCN(C)CC2)c2nc3ccccc3s2)c1 (stereo not shown) [Example 276, 1-(3-{3-[benzothiazol-2-yl(1-methylpiperidin-4-yloxy)methyl]phenyl}prop-2-ynyloxy)-propan-2-ol]
< 300 nM	COCCOc1cccc(C(OC2CCN(C)CC2)c2nc3ccccc3s2)c1 (stereo not shown) [Example 277, 2-[[3-(2-methoxyethoxy)phenyl](1-methylpiperidin-4-yloxy)methyl]benzothiazole]
< 30 nM	CN1CCC(OC(c2cccc(SCCNC(=N)N)c2)c2nc3ccccc3[nH]2)CC1 (stereo not shown) [Example 278, N-(2-{3-[(1H-benzimidazol-2-yl)(1-methylpiperidin-4-yloxy)methyl]phenylsulfanyl}ethyl)guanidine]

Ki or IC50 activity class	Compound
< 1000 nM	CNCCOc1cccc(C(OC2CCN(C)CC2)c2nc3ccccc3s2)c1 (stereo not shown) [Example 279, (2-{3-[benzothiazol-2-yl(1-methylpiperidin-4-yloxy)methyl]phenoxy}ethyl)methyl-amine]
< 300 nM	CN1CCC(OC(c2cccc(OC(F)(F)F)c2)c2nc3ccccc3[nH]2)CC1 (stereo not shown) [Example 280, 2-[(1-methylpiperidin-4-yloxy)(3-trifluoromethoxy-phenyl)methyl]-1H-benzimidazole]
< 1000 nM	CN1CCC(OC(c2nc3ccccc3s2)c2ccccc2Cl)CC1 (stereo not shown) [Example 281, 2-[(2-Chlorophenyl)(1-methylpiperidin-4-yloxy)methyl]benzothiazole]
< 1000 nM	CN1CCC(OC(c2cccc(C#CCCN)c2)c2nc3ccccc3s2)CC1 (stereo not shown) [Example 282, 4-{3-[benzothiazol-2-yl(1-methylpiperidin-4-yloxy)methyl]phenyl}but-3-ynylamine]
< 30 nM	CN1CCC(OC(c2cccc(OCc3ccccn3)c2)c2nc3ccccc3s2)CC1 (stereo not shown) [Example 283, 2-{(1-methylpiperidin-4-yloxy)[3-(pyridin-2-ylmethoxy)phenyl]methyl}benzothiazole]
< 300 nM	CN1CCC(OC(c2cccc(OCc3cccnc3)c2)c2nc3ccccc3s2)CC1 (stereo not shown) [Example 284, 2-{(1-methylpiperidin-4-yloxy)[3-(pyridin-3-ylmethoxy)phenyl]methyl}benzothiazole]
< 1000 nM	CN1CCC(OC(c2cccc(OCC3CCCCC3)c2)c2nc3ccccc3s2)CC1 (stereo not shown) [Example 285, 2-[(3-Cyclohexylmethoxyphenyl)(1-methylpiperidin-4-yloxy)methyl]benzothiazole]
< 300 nM	CN1CCC(OC(c2cccc(C#CCCN)c2)c2nc3ccccc3[nH]2)CC1 (stereo not shown) [Example 286, 4-{3-[(1H-benzimidazol-2-yl)(1-methylpiperidin-4-yloxy)methyl]phenyl}but-3-ynylamine]
< 30 nM	CN1CCC(OC(c2cccc(C#CCCCN)c2)c2nc3ccccc3s2)CC1 (stereo not shown) [Example 287, 5-{3-[benzothiazol-2-yl(1-methylpiperidin-4-yloxy)methyl]phenyl}pent-4-ynylamine]
< 1000 nM	CN1CCC(OC(c2cccc(SCC(O)CO)c2)c2nc3ccccc3[nH]2)CC1 (stereo not shown) [Example 288, 3-{3-[(1H-benzimidazol-2-yl)(1-methylpiperidin-4-yloxy)methyl]phenylsulfanyl}propane-1,2-diol]
< 30 nM	CN1CCC(OC(c2cccc(CCCCCN)c2)c2nc3ccccc3s2)CC1 (stereo not shown) [Example 289, 5-{3-[benzothiazol-2-yl(1-methylpiperidin-4-yloxy)methyl]phenyl}pentylamine]
< 300 nM	CCN1CCC(OC(c2cccc(OCCN)c2)c2nc3ccccc3s2)CC1 (stereo not shown) [Example 290, 2-{3-[benzothiazol-2-yl(1-ethyl-piperidin-4-yloxy)methyl]phenoxy}ethylamine]
< 300 nM	CN1CCC(OC(c2cccc(SCCCCCCO)c2)c2nc3ccccc3s2)CC1 (stereo not shown) [Example 292, 6-{3-[benzothiazol-2-yl(1-methylpiperidin-4-yloxy)methyl]phenylsulfanyl}hexan-1-ol]
< 300 nM	CN1CCC(OC(c2cccc(CCCCN)c2)c2nc3ccccc3[nH]2)CC1 (stereo not shown) [Example 293, 4-{3-[(1H-benzimidazol-2-yl)(1-methylpiperidin-4-yloxy)methyl]phenyl}butylamine]
< 30 nM	CN1CCC(OC(c2cccc(C#CCCCN)c2)c2nc3ccccc3[nH]2)CC1 (stereo not shown) [Example 294, 5-{3-[(1H-benzimidazol-2-yl)(1-methylpiperidin-4-yloxy)methyl]phenyl}pent-4-ynylamine]
< 300 nM	CN1CCC(OC(c2cccc(SCCCCCCO)c2)c2nc3ccccc3[nH]2)CC1 (stereo not shown) [Example 295, 6-{3-[(1H-benzimidazol-2-yl)(1-methylpiperidin-4-yloxy)methyl]phenylsulfanyl}hexan-1-ol]
< 300 nM	CN1CCC(OC(c2cccc(C#CCN)c2)c2nc3ccccc3s2)CC1 (stereo not shown) [Example 296, 3-{3-[benzothiazol-2-yl(1-methylpiperidin-4-yloxy)methyl]phenyl}prop-2-ynylamine]
< 300 nM	CN1CCC(OC(c2ccc3c(c2)OCO3)c2nc3ccccc3[nH]2)CC1 (stereo not shown) [Example 297, 2-[benzo[1,3]dioxol-5-yl(1-methylpiperidin-4-yloxy)methyl]-1H-benzimidazole]
< 1000 nM	CN1CCC(OC(c2cccc(SCCNC3=NCCS3)c2)c2nc3ccccc3[nH]2)CC1 (stereo not shown) [Example 299, (2-{3-[(1H-benzimidazol-2-yl)(1-methylpiperidin-4-yloxy)methyl]phenyl-sulfanyl}ethyl)(4,5-dihydrothiazol-2-yl)amine]

Same assay, conditions: read-out: Activity (Ki or IC50)

Compound	Ki
CN1CCC(OC(c2cccc(SCC3(CCO)CC3)c2)c2nc3ccccc3[nH]2)CC1 (stereo not shown) [Example 257]	< 1000 nM
